Assay results taken from patent US20140213447A1, “HERBICIDAL COMPOSITIONS COMPRISING 4-AMINO-3-CHLORO-6-(4-CHLORO-2-FLUORO-3-METHOXYPHENYL) PYRIDINE-2-CARBOXYLIC ACID OR A DERIVATIVE THEREOF AND CERTAIN TRIAZOLOPYRIMIDINE SULFONAMIDES” (DOW AGROSCIENCES LLC, priority 2013, published 2014).

Assays:
Assay type in all cases: in vivo
Conditions in all cases: alone, 14 d
[1] = system: Setaria faberi Herrm. (giant foxtail); experiment: Postemergent herbicidal activity, greenhouse foliar application, SETFA
Protocol: (§1) Evaluation of Postemergent Herbicidal Activity. Seeds or nutlets of the desired test plant species were planted in Sun Gro Metro-Mix® 360 planting mixture, which typically has a pH of 6.0 to 6.8 and an organic matter content of about 30 percent, in plastic pots with a surface area of 64 square centimeters (cm^2). When required to ensure good germination and healthy plants, a fungicide treatment and/or other chemical or physical treatment was applied. The plants were grown for 7-21 days (d) in a greenhouse with an approximate 15 hour (h) photoperiod which was maintained at about 23-29° C. during the day and 22-28° C. during the night. Nutrients and water were added on a regular basis and supplemental lighting was provided with overhead metal halide 1000-Watt lamps as necessary. The plants were employed for testing when they reached the first or second true leaf stage.
(§2) A weighed amount, determined by the highest rate to be tested, of each test compound was placed in a 25 milliliter (mL) glass vial and was dissolved in 4 mL of a 97:3 volume per volume (v/v) mixture of acetone and dimethyl sulfoxide (DMSO) to obtain concentrated stock solutions. […] The concentrated stock solutions obtained were diluted with 20 mL of an aqueous mixture containing acetone, water, isopropyl alcohol, DMSO, Atplus 411F crop oil concentrate, and Triton® X-155 surfactant in a 48.5:39:10:1.5:1.0:0.02 v/v ratio to obtain spray solutions containing the highest application rates. Additional application rates were obtained by serial dilution of 12 mL of the high rate solution into a solution containing 2 mL of a 97:3 v/v mixture of acetone and DMSO and 10 mL of an aqueous mixture containing acetone, water, isopropyl alcohol, DMSO, Atplus 411F crop oil concentrate, and Triton X-155 surfactant in a 48.5:39:10:1.5:1.0:0.02 v/v ratio to obtain ½×, ¼×, ⅛× and 1/16× rates of the high rate. Compound requirements are based upon a 12 mL application volume at a rate of 187 liters per hectare (L/ha). Formulated compounds were applied to the plant material with an overhead Mandel track sprayer equipped with 8002E nozzles calibrated to deliver 187 L/ha over an application area of 0.503 square meters (m^2) at a spray height of 18 inches ([…]) above the average plant canopy height. Control plants were sprayed in the same manner with the solvent blank.
(§3) Treatments consisted of the methyl ester of 4-amino-3-chloro-6-(4-chloro-2-fluoro-3-methoxyphenyl)pyridine-2-carboxylic acid (Cmpd 1) as technical grade material and cloransulam-methyl (FirstRate®) and diclosulam (Strongarm®) alone and in combination. The form of compound of formula (I) was applied on an acid equivalent basis, and cloransulam-methyl and diclosulam were applied on an active ingredient basis.
(§4) The treated plants and control plants were placed in a greenhouse as described above and watered by subirrigation to prevent wash-off of the test compounds. After 14 d, the condition of the test plants as compared with that of the untreated plants was determined visually and scored on a scale of 0 to 100 percent where 0 corresponds to no injury and 100 corresponds to complete kill.
(§5) Results in Tables 1 and 2 are greenhouse trial results for foliar applied compositions. The values reported are percent (%) control visually rated. Colby's equation was used to determine the herbicidal effects expected from the mixtures (Colby, S. R. Calculation of the synergistic and antagonistic response of herbicide combinations. Weeds 1967, 15, 20-22.). More specifically, the following equation was used to calculate the expected activity of mixtures containing two active ingredients, A and B:
(§6) Expected=A+B−(A×B/100) • A=observed efficacy of active ingredient A at the same concentration as used in the mixture; • B=observed efficacy of active ingredient B at the same concentration as used in the mixture.

[2] = system: Ipomoea hederacea (L.) Jacq. (ivyleaf momingglory); experiment: Postemergent herbicidal activity, greenhouse foliar application, IPOHE
Protocol: as §1, §2, §3, §4, §5, §6

[3] = system: Sorghum vulgare (common sorghum); experiment: Postemergent herbicidal activity, greenhouse foliar application, SORVU
Protocol: as §1, §2, §3, §4, §5, §6

[4] = system: Cyperus esculentus L. (yellow nutsedge); experiment: Postemergent herbicidal activity, greenhouse foliar application, CYPES
Protocol: as §1, §2, §3, §4, §5, §6

[5] = system: Chenopodium album L. (common lambsquarters); experiment: Postemergent herbicidal activity, greenhouse foliar application, CHEAL
Protocol: as §1, §2, §3, §4, §5, §6

[6] = system: Stellaria media (L.) Vill. (common chickweed); experiment: Postemergent herbicidal activity, greenhouse foliar application, STEME
Protocol: as §1, §2, §3, §4, §5, §6

[7] = system: Amaranthus retroflexus L. (redroot pigweed); experiment: Postemergent herbicidal activity, greenhouse foliar application, AMARE
Protocol: as §1, §2, §3, §4, §5, §6

[8] = system: Viola tricolor (L.) (wild pansy); experiment: Postemergent herbicidal activity, greenhouse foliar application, VIOTR
Protocol: as §1, §2, §3, §4, §5, §6

[9] = system: Brassica napus (winter oilseed rape); experiment: Postemergent herbicidal activity, greenhouse foliar application, BRSNW
Protocol: as §1, §2, §3, §4, §5, §6

COC(=O)c1nc(-c2ccc(Cl)c(OC)c2F)cc(N)c1Cl [Cmpd 1, methyl 4-amino-3-chloro-6-(4-chloro-2-fluoro-3-methoxyphenyl)pyridine-2-carboxylate]
SETFA Obs, percent (%) control rated visually ([1]; 1.25 g ae/ha): 0%
SETFA Obs, percent (%) control rated visually ([1]; 2.5 g ae/ha): 0%
SETFA Obs, percent (%) control rated visually ([1]; 5 g ae/ha): 30%
IPOHE Obs, percent (%) control rated visually ([2]; 1.25 g ae/ha): 10%
IPOHE Obs, percent (%) control rated visually ([2]; 2.5 g ae/ha): 20%
IPOHE Obs, percent (%) control rated visually ([2]; 5 g ae/ha): 20%
SORVU Obs, percent (%) control rated visually ([3]; 1.25 g ae/ha): 0%
SORVU Obs, percent (%) control rated visually ([3]; 2.5 g ae/ha): 0%
SORVU Obs, percent (%) control rated visually ([3]; 5 g ae/ha): 0%
CYPES Obs, percent (%) control rated visually ([4]; 1.25 g ae/ha): 50%
CYPES Obs, percent (%) control rated visually ([4]; 2.5 g ae/ha): 90%
CYPES Obs, percent (%) control rated visually ([4]; 5 g ae/ha): 93%
CHEAL Obs, percent (%) control rated visually ([5]; 1.25 g ae/ha): 70%
CHEAL Obs, percent (%) control rated visually ([5]; 2.5 g ae/ha): 80%
CHEAL Obs, percent (%) control rated visually ([5]; 5 g ae/ha): 93%
STEME Obs, percent (%) control rated visually ([6]; 1.25 g ae/ha): 30%
STEME Obs, percent (%) control rated visually ([6]; 2.5 g ae/ha): 20%
STEME Obs, percent (%) control rated visually ([6]; 5 g ae/ha): 40%
AMARE Obs, percent (%) control rated visually ([7]; 1.25 g ae/ha): 50%
AMARE Obs, percent (%) control rated visually ([7]; 2.5 g ae/ha): 60%
AMARE Obs, percent (%) control rated visually ([7]; 5 g ae/ha): 90%
VIOTR Obs, percent (%) control rated visually ([8]; 1.25 g ae/ha): 10%
VIOTR Obs, percent (%) control rated visually ([8]; 2.5 g ae/ha): 10%
VIOTR Obs, percent (%) control rated visually ([8]; 5 g ae/ha): 30%
BRSNW Obs, percent (%) control rated visually ([9]; 1.25 g ae/ha): 0%
BRSNW Obs, percent (%) control rated visually ([9]; 2.5 g ae/ha): 5%
BRSNW Obs, percent (%) control rated visually ([9]; 5 g ae/ha): 20%

CCOc1nc(F)cc2nc(S(=O)(=O)Nc3c(Cl)cccc3C(=O)OC)nn12 [cloransulam-methyl, methyl 3-chloro-2-[[(5-ethoxy-7-fluoro[1,2,4]triazolo[1,5-c]pyrimidin-2-yl)sulfonyl]amino]benzoate]
SETFA Obs, percent (%) control rated visually ([1]; 4.375 g ai/ha): 0%
SETFA Obs, percent (%) control rated visually ([1]; 8.75 g ai/ha): 0%
SETFA Obs, percent (%) control rated visually ([1]; 17.5 g ai/ha): 0%
IPOHE Obs, percent (%) control rated visually ([2]; 4.375 g ai/ha): 80%
IPOHE Obs, percent (%) control rated visually ([2]; 8.75 g ai/ha): 85%
IPOHE Obs, percent (%) control rated visually ([2]; 17.5 g ai/ha): 85%
SORVU Obs, percent (%) control rated visually ([3]; 4.375 g ai/ha): 0%
SORVU Obs, percent (%) control rated visually ([3]; 8.75 g ai/ha): 10%
SORVU Obs, percent (%) control rated visually ([3]; 17.5 g ai/ha): 20%
CHEAL Obs, percent (%) control rated visually ([5]; 4.375 g ai/ha): 0%
CHEAL Obs, percent (%) control rated visually ([5]; 8.75 g ai/ha): 10%
CHEAL Obs, percent (%) control rated visually ([5]; 17.5 g ai/ha): 20%
STEME Obs, percent (%) control rated visually ([6]; 4.375 g ai/ha): 0%
STEME Obs, percent (%) control rated visually ([6]; 8.75 g ai/ha): 0%
STEME Obs, percent (%) control rated visually ([6]; 17.5 g ai/ha): 0%
AMARE Obs, percent (%) control rated visually ([7]; 4.375 g ai/ha): 0%
AMARE Obs, percent (%) control rated visually ([7]; 8.75 g ai/ha): 10%
AMARE Obs, percent (%) control rated visually ([7]; 17.5 g ai/ha): 20%
VIOTR Obs, percent (%) control rated visually ([8]; 4.375 g ai/ha): 10%
VIOTR Obs, percent (%) control rated visually ([8]; 8.75 g ai/ha): 50%
VIOTR Obs, percent (%) control rated visually ([8]; 17.5 g ai/ha): 65%
BRSNW Obs, percent (%) control rated visually ([9]; 4.375 g ai/ha): 90%
BRSNW Obs, percent (%) control rated visually ([9]; 8.75 g ai/ha): 93%
BRSNW Obs, percent (%) control rated visually ([9]; 17.5 g ai/ha): 95%

CCOc1nc(F)cc2nc(S(=O)(=O)Nc3c(Cl)cccc3Cl)nn12 [diclosulam, N-(2,6-dichlorophenyl)-5-ethoxy-7-fluoro[1,2,4]triazolo[1,5-c]pyrimidine-2-sulfonamide]
SETFA Obs, percent (%) control rated visually ([1]; 4.375 g ai/ha): 0%
SETFA Obs, percent (%) control rated visually ([1]; 8.75 g ai/ha): 0%
SETFA Obs, percent (%) control rated visually ([1]; 17.5 g ai/ha): 0%
IPOHE Obs, percent (%) control rated visually ([2]; 4.375 g ai/ha): 75%
IPOHE Obs, percent (%) control rated visually ([2]; 8.75 g ai/ha): 80%
IPOHE Obs, percent (%) control rated visually ([2]; 17.5 g ai/ha): 85%
SORVU Obs, percent (%) control rated visually ([3]; 4.375 g ai/ha): 0%
SORVU Obs, percent (%) control rated visually ([3]; 8.75 g ai/ha): 0%
SORVU Obs, percent (%) control rated visually ([3]; 17.5 g ai/ha): 0%
CYPES Obs, percent (%) control rated visually ([4]; 4.375 g ai/ha): 60%
CYPES Obs, percent (%) control rated visually ([4]; 8.75 g ai/ha): 60%
CYPES Obs, percent (%) control rated visually ([4]; 17.5 g ai/ha): 70%
CHEAL Obs, percent (%) control rated visually ([5]; 4.375 g ai/ha): 0%
CHEAL Obs, percent (%) control rated visually ([5]; 8.75 g ai/ha): 10%
CHEAL Obs, percent (%) control rated visually ([5]; 17.5 g ai/ha): 40%
STEME Obs, percent (%) control rated visually ([6]; 4.375 g ai/ha): 0%
STEME Obs, percent (%) control rated visually ([6]; 8.75 g ai/ha): 0%
STEME Obs, percent (%) control rated visually ([6]; 17.5 g ai/ha): 0%
AMARE Obs, percent (%) control rated visually ([7]; 4.375 g ai/ha): 10%
AMARE Obs, percent (%) control rated visually ([7]; 8.75 g ai/ha): 20%
AMARE Obs, percent (%) control rated visually ([7]; 17.5 g ai/ha): 30%
VIOTR Obs, percent (%) control rated visually ([8]; 4.375 g ai/ha): 10%
VIOTR Obs, percent (%) control rated visually ([8]; 8.75 g ai/ha): 50%
VIOTR Obs, percent (%) control rated visually ([8]; 17.5 g ai/ha): 70%
BRSNW Obs, percent (%) control rated visually ([9]; 4.375 g ai/ha): 80%
BRSNW Obs, percent (%) control rated visually ([9]; 8.75 g ai/ha): 85%
BRSNW Obs, percent (%) control rated visually ([9]; 17.5 g ai/ha): 90%
